Biological target: T1, HEK293 cells expressing GHS-R1a receptor (Homo sapiens, UniProt Q92847)
T1 construct: host or cells: HEK293 cells (grown under geneticin selection)
Test: Fluorescence functional assay (ghrelin receptor), Example 2
Type: cell-based
Settings: assay of Example 2 (fluorescence, calcium)
Description: The compounds of the present invention were evaluated for their ability to interact at the human ghrelin receptor utilizing a competitive radioligand binding assay, fluorescence assay or Aequorin functional assay as described in the examples below. Such methods can be conducted, if so desired, in a high throughput manner to permit the simultaneous evaluation of many compounds.
• 1. Hanks' BSS without phenol red (Life Technologies) • 2. Hepes buffer • 3. Probenecid (Sigma) • 4. FLIPR Calcium-3 Assay Kit (Molecular Devices #R-8091) • 5. Falcon cell culture 96-well black/clear bottom plates • 6. 0.05% trypsin-EDTA • 7. […]
The plates were removed from the incubator and the media removed by inversion of the plates. […] For agonist testing, after reading for ten (10) sec, 25 μL of 2× test compound or control was injected into the assay plate. Fluorescence was monitored for an additional 50 sec. A reading was taken every two (2) seconds for a total of 30 readings per assay point.
For antagonist testing, after reading for ten (10) sec, 12.5 μL of 3× test compound or control was injected into the assay plate and allowed to react for three (3) min. At that time, 4 nM ghrelin (corresponds to EC80) was injected and fluorescence was monitored for an additional 60 sec. A reading was taken every two (2) seconds for a total of 125 readings per data point. […]

T1 sequence (Q92847 whole entry): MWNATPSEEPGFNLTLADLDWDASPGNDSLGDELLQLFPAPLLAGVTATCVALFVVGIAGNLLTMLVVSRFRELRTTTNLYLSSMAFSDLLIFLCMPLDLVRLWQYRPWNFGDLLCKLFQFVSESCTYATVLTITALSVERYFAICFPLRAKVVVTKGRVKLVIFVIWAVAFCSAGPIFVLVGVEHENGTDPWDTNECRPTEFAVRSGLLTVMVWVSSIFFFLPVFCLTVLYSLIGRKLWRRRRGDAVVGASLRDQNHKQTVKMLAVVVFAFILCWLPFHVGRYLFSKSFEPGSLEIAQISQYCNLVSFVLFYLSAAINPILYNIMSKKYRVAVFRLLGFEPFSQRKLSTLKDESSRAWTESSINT

A Ki of 100 to 1000 nM was found for `CCC(C)[C@@H]1NCCOc2ccccc2/C=C/CNC(=O)[C@@H](Cc2ccccc2)NC(=O)[C@H](C(C)O)N(C)C1=O` (stereo partly shown) [Compound 502] in this work.
